We go through eight compounds from article PMC5149017, “Synthesis and Acetylcholinesterase Inhibitory Evaluation of 4-(1,3-Dioxoisoindolin-2-yl)-N-Phenyl Benzamide Derivatives as Potential Anti-Alzheimer Agents” (Iranian Journal of Pharmaceutical Research : IJPR, 2016).

Each structure is given as a SMILES string.

The target of the assay is T1, acetylcholinesterase from electric eel source (AChE, E.C. 3.1.1.7, Type V-S) (Electrophorus electricus, UniProt O42275).
T1 construct: Acetylcholinesterase enzyme extracted from electric eel was utilized; purchased Sigma-Aldrich (Steinheim, Germany) Type V-S; host or cells: electric eel tissue (extracted)
T1 sequence (O42275 24-633): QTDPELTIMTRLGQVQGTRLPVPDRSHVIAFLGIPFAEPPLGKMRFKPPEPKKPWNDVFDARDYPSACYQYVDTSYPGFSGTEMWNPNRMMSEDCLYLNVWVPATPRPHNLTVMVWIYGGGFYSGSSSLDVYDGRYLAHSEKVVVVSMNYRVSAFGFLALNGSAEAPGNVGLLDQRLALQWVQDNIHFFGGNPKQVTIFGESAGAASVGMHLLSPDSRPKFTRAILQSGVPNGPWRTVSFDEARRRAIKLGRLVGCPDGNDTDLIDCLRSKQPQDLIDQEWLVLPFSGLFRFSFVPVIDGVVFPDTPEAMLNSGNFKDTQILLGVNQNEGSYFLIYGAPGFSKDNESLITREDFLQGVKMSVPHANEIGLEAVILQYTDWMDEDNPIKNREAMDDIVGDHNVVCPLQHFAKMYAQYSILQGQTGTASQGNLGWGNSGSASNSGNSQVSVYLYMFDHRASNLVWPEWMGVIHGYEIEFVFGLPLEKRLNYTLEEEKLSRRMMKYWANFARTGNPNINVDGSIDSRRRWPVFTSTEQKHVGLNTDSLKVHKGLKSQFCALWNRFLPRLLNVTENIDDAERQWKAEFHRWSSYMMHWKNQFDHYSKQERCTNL
The experiment in a line: biochemical. As to conditions: Ellman test, preincubation 15 min at 25 °C, pH 8.0, triplicate, IC50 ± SD, read-out: IC50 (enzymatic assay, acetylcholinesterase inhibition). Here is the method: Lyophilized powder of acetylcholinesterase from electric eel source (AChE, E.C. 3.1.1.7, Type V-S, 1000 unit) was purchased from Sigma-Aldrich (Steinheim, Germany). 5,5′-Dithiobis-(2-nitrobenzoic acid, DTNB), potassium dihydrogen phosphate (KH2PO4), dipotassium hydrogen phosphate (K2HPO4), potassium hydroxide (KOH), sodium hydrogen carbonate (NaHCO3), and acetylthiocholine iodide were purchased from Fluka (Buchs, Switzerland).
According to the literature, the Ellman test was performed for assessment of the anticholinesterase activity of intended compounds in-vitro. […] After rapid and immediate mixing the change of absorption was measured at 412 nm.
The blank reading contained 3 mL buffer, 200 µL water, 100 µL DTNB and 20 µL substrate. The reaction rates were calculated, and the percent inhibition of test compounds was determined. Each concentration was analyzed in triplicate, and IC50 ± SD values were determined graphically from inhibition curves (log inhibitor concentration vs. percent of inhibition) ([22], [23]).
Acetylcholinesterase enzyme extracted from electric eel was utilized for assessment of the potency of intended compounds.
`O=C(Nc1cccc(Cl)c1)c1ccc(N2C(=O)c3ccccc3C2=O)cc1` [Compound 4a, N-(3-Chlorophenyl)-4-(1,3-dioxoisoindolin-2-yl)benzamide]: the concentration for half-maximal inhibition (IC50) was more than 250 µM.
Then `O=C(Nc1ccc(Cl)cc1)c1ccc(N2C(=O)c3ccccc3C2=O)cc1` [Compound 4b, N-(4-Chlorophenyl)-4-(1,3-dioxoisoindolin-2-yl)benzamide], with more than 250 µM.
On to `O=C(Nc1ccccc1F)c1ccc(N2C(=O)c3ccccc3C2=O)cc1` [Compound 4c, 4-(1,3-Dioxoisoindolin-2-yl)-N-(2-fluorophenyl)benzamide], for which the IC50 was more than 250 µM.
Then `O=C(Nc1cccc(F)c1)c1ccc(N2C(=O)c3ccccc3C2=O)cc1` [Compound 4d, 4-(1,3-Dioxoisoindolin-2-yl)-N-(3-fluorophenyl)benzamide], with more than 250 µM; and `COc1cccc(NC(=O)c2ccc(N3C(=O)c4ccccc4C3=O)cc2)c1` [Compound 4e, 4-(1,3-Dioxoisoindolin-2-yl)-N-(3-methoxyphenyl)benzamide], with more than 250 µM.
For the compound `COc1ccc(NC(=O)c2ccc(N3C(=O)c4ccccc4C3=O)cc2)cc1` [Compound 4f, 4-(1,3-Dioxoisoindolin-2-yl)-N-(4-methoxyphenyl)benzamide], the IC50 is more than 250 µM.
With `O=C(Nc1ccccc1[N+](=O)[O-])c1ccc(N2C(=O)c3ccccc3C2=O)cc1` [Compound 4g, 4-(1,3-Dioxoisoindolin-2-yl)-N-(2-nitrophenyl)benzamide], the IC50 was 1.1 ± 0.25 µM.
As to `O=C(Nc1ccc([N+](=O)[O-])cc1)c1ccc(N2C(=O)c3ccccc3C2=O)cc1` [Compound 4h, 4-(1,3-Dioxoisoindolin-2-yl)-N-(4-nitrophenyl)benzamide], the IC50 is more than 250 µM.
